# Source: patent publication EP1171107B1, “USE OF A PHARMACEUTICAL COMPOSITION IN THE MANUFACTURE OF A MEDICAMENT FOR THE TREATMENT OF PATHOLOGICAL CONDITIONS OF THE EYE CAUSED BY BACTERIA, VIRUSES, FUNGI, YEASTS AND PROTOZOA” (Dr. GERHARD MANN chem.-pharm. Fabrik GmbH, priority 1999, dated 2000)
# How the values were obtained:
# Format in all cases: cell-based
# P.aeruginosa [1] = experiment: Quantitative germ count (re-isolation, surface method) after inoculating the test preparation; conditions: Ausgangskeimzahl 2,7 x 10^5 KBE/ml
# Description: (§1) Escherichia (E.coli) Staphylococcus (S.aureus) Streptococcus (Sc.) Pneumoniae Pseudomonas (P.aeruginosa) Staphylococcus (S. epidermidis) Haemophilus (H. influenzae)
# (§2) Die verschiedenen Testkeime wurde jeweils aus einem Lyophilisat in NaCl-Peptonpuffer homogenisiert und auf Caseinpepton-Sojymehlpepton. (Caso-) Agar (Fa. bioMérieux; Art. Nr. 43019) bez. Kochblut-Agar (Fa. bioMérieux; Art. Nr. 43109) subkultiviert. Die Teststämme wurden vor Versuchsbeginn durch Erstellen eines biochemischen Profils mittels ATB/Vitek-System (Fa. bioMérieux, Nürtingen) auf Reinheit und Identität überprüft.
# (§3) Die Ausgangskeimzahl wurde im Oberflächenverfahren mit Hilfe eines Spiralplaters (Fa. Meintrup, Lähden) ermittelt und ist im einzelnen den Tabellen 1-12 zu entnehmen.
# (§4) Die verschiedenen Testsubstanzen a. bis j. wurden jeweils zu 5 ml in sterile Zentrifugenröhrchen abgefüllt und mit ca. 10^5 KBE^*/ml (* = koloniebildende Einheiten) der oben genannten Testkeime kontaminiert. Pro Substanz wurde für jeden Testkeim und jede zu prüfende Testzeit ein separater Ansatz angeimpft, d.h.10 Testsubstanzen zu jeweils 7 Testzeiten und 6 Testkeime (= insgesamt 502 Testansätze). Nach 2, 6, 8, 24, 32, 48 und 72 Stunden wurde dann der jeweilige Testansatz 10 Minuten bei 3000 rpm abzentrifugiert. Der Überstand wurde dekantiert und das Pellet in 5 ml NaCl Peptonpuffer aufgenommen und resuspendiert. Die Suspension wurde erneut 10 Minuten bei 3000 rpm abzentrifugiert und 5 ml NaCl-Peptonpuffer aufgenommen und mittels Vortex homogenisiert.
# (§5) Die anschließende Keimzahlbestimmung erfolgte im Oberflächenverfahren durch Ausspiralisieren eines […] Aliquots auf Caso-Agar bzw. für H. influenzae auf Kochblut-Agar. Die Platten wurden bei 33±2°C für max. 4 Tage bebrütet. Die Nachweisgrenze des Verfahrens liegt bei 100 KBE/ml.
# Sc. pneumoniae [2] = experiment: Qualitative examination: enrichment of the inoculated test preparation in broth
# Description: as §1, §2
# as §4, with “Nach 2, 6, 8, 24, 32, 48 und 72 Stunden wurde dann der jeweilige Testansatz 10 Minuten bei 3000 rpm abzentrifugiert.” left out
# (§6) Jeweils 2 ml der Testansätze wurden in 20 ml Caso-Bouillon oder für H. influenzae, in Fildes-Medium der Firma Becton Dickinson, ARt. Nr. 0349-739, angereichert und ebenfalls maximal 4 Tage bei 33± 2°C bebrütet. Ein negatives Ergebnis der Anreicherung belegt die Elimination der inokulierten Keime.
# S.epidermidis = experiment: as above
# Description: as §1, §2
# as §4, with “Nach 2, 6, 8, 24, 32, 48 und 72 Stunden wurde dann der jeweilige Testansatz 10 Minuten bei 3000 rpm abzentrifugiert.” left out
# as §6
# E.coli [3] = experiment: as above
# Description: as §1, §2
# as §4, with “Nach 2, 6, 8, 24, 32, 48 und 72 Stunden wurde dann der jeweilige Testansatz 10 Minuten bei 3000 rpm abzentrifugiert.” left out
# as §6
# S.aureus [4] = experiment: as above
# Description: as §1, §2
# as §4, with “Nach 2, 6, 8, 24, 32, 48 und 72 Stunden wurde dann der jeweilige Testansatz 10 Minuten bei 3000 rpm abzentrifugiert.” left out
# as §6
# H.influenzae [5] = experiment: as above
# Description: as §1, §2, §4, §6
# P.aeruginosa [6] = experiment: as above
# Description: as §1, §2, §4, §6
# Sc. pneumoniae [7] = experiment: Quantitative germ count (re-isolation, surface method) after inoculating the test preparation; conditions: Ausgangskeimzahl 3,7 x 10^5 KBE/ml
# Description: as §1, §2, §3
# as §4, with “Nach 2, 6, 8, 24, 32, 48 und 72 Stunden wurde dann der jeweilige Testansatz 10 Minuten bei 3000 rpm abzentrifugiert.” left out
# as §5
# H.influenzae [8] = experiment: as above; conditions: Ausgangskeimzahl 2,8 x 10^5 KBE/ml
# Description: as §1, §2, §3
# as §4, with “Nach 2, 6, 8, 24, 32, 48 und 72 Stunden wurde dann der jeweilige Testansatz 10 Minuten bei 3000 rpm abzentrifugiert.” left out
# as §5
# E.coli [9] = experiment: as above; conditions: Ausgangskeimzahl 2,7 x 10^5 KBE/ml
# Description: as §1, §2, §3
# as §4, with “Nach 2, 6, 8, 24, 32, 48 und 72 Stunden wurde dann der jeweilige Testansatz 10 Minuten bei 3000 rpm abzentrifugiert.” left out
# as §5
# S.aureus [10] = experiment: as above; conditions: Ausgangskeimzahl 2,6 x 10^5 KBE/ml
# Description: as §1, §2, §3
# as §4, with “Nach 2, 6, 8, 24, 32, 48 und 72 Stunden wurde dann der jeweilige Testansatz 10 Minuten bei 3000 rpm abzentrifugiert.” left out
# as §5
substance,measurement,setting,value
"Benzalkoniumchlorid [Benzalkoniumchlorid 0,0025 Gew.-%]",Ergebnis der Reisolierung (in KBE/ml),P.aeruginosa [1]; 2 h after inoculation,<100 KBE/ml
same,Ergebnis der Reisolierung (in KBE/ml),P.aeruginosa [1]; 4 h after inoculation,<100 KBE/ml
same,Ergebnis der Reisolierung (in KBE/ml),P.aeruginosa [1]; 6 h after inoculation,<100 KBE/ml
same,Ergebnis der Reisolierung (in KBE/ml),P.aeruginosa [1]; 8 h after inoculation,<100 KBE/ml
same,Ergebnis der Reisolierung (in KBE/ml),P.aeruginosa [1]; 24 h after inoculation,<100 KBE/ml
same,Ergebnis der Reisolierung (in KBE/ml),P.aeruginosa [1]; 32 h after inoculation,<100 KBE/ml
same,Ergebnis der Reisolierung (in KBE/ml),P.aeruginosa [1]; 48 h after inoculation,<100 KBE/ml
same,Ergebnis der Reisolierung (in KBE/ml),P.aeruginosa [1]; 72 h after inoculation,<100 KBE/ml
same,Ergebnis der Reisolierung qualitiativ (+/-) nach Anreicherung,Sc. pneumoniae [2]; 2 h after inoculation,-
same,Ergebnis der Reisolierung qualitiativ (+/-) nach Anreicherung,Sc. pneumoniae [2]; 4 h after inoculation,-
same,Ergebnis der Reisolierung qualitiativ (+/-) nach Anreicherung,Sc. pneumoniae [2]; 6 h after inoculation,-
same,Ergebnis der Reisolierung qualitiativ (+/-) nach Anreicherung,Sc. pneumoniae [2]; 8 h after inoculation,-
same,Ergebnis der Reisolierung qualitiativ (+/-) nach Anreicherung,Sc. pneumoniae [2]; 24 h after inoculation,-
same,Ergebnis der Reisolierung qualitiativ (+/-) nach Anreicherung,Sc. pneumoniae [2]; 32 h after inoculation,-
same,Ergebnis der Reisolierung qualitiativ (+/-) nach Anreicherung,Sc. pneumoniae [2]; 48 h after inoculation,-
same,Ergebnis der Reisolierung qualitiativ (+/-) nach Anreicherung,Sc. pneumoniae [2]; 72 h after inoculation,-
same,Ergebnis der Reisolierung qualitiativ (+/-) nach Anreicherung,S.epidermidis; 2 h after inoculation,- -
same,Ergebnis der Reisolierung qualitiativ (+/-) nach Anreicherung,S.epidermidis; 4 h after inoculation,-
same,Ergebnis der Reisolierung qualitiativ (+/-) nach Anreicherung,S.epidermidis; 6 h after inoculation,-
same,Ergebnis der Reisolierung qualitiativ (+/-) nach Anreicherung,S.epidermidis; 8 h after inoculation,-
same,Ergebnis der Reisolierung qualitiativ (+/-) nach Anreicherung,S.epidermidis; 24 h after inoculation,-
same,Ergebnis der Reisolierung qualitiativ (+/-) nach Anreicherung,S.epidermidis; 32 h after inoculation,-
same,Ergebnis der Reisolierung qualitiativ (+/-) nach Anreicherung,S.epidermidis; 48 h after inoculation,-
same,Ergebnis der Reisolierung qualitiativ (+/-) nach Anreicherung,S.epidermidis; 72 h after inoculation,-
same,Ergebnis der Reisolierung qualitiativ (+/-) nach Anreicherung,E.coli [3]; 2 h after inoculation,-
same,Ergebnis der Reisolierung qualitiativ (+/-) nach Anreicherung,E.coli [3]; 4 h after inoculation,-
same,Ergebnis der Reisolierung qualitiativ (+/-) nach Anreicherung,E.coli [3]; 6 h after inoculation,-
same,Ergebnis der Reisolierung qualitiativ (+/-) nach Anreicherung,E.coli [3]; 8 h after inoculation,-
same,Ergebnis der Reisolierung qualitiativ (+/-) nach Anreicherung,E.coli [3]; 24 h after inoculation,-
same,Ergebnis der Reisolierung qualitiativ (+/-) nach Anreicherung,E.coli [3]; 32 h after inoculation,-
same,Ergebnis der Reisolierung qualitiativ (+/-) nach Anreicherung,E.coli [3]; 48 h after inoculation,-
same,Ergebnis der Reisolierung qualitiativ (+/-) nach Anreicherung,E.coli [3]; 72 h after inoculation,-
same,Ergebnis der Reisolierung qualitiativ (+/-) nach Anreicherung,S.aureus [4]; 2 h after inoculation,-
same,Ergebnis der Reisolierung qualitiativ (+/-) nach Anreicherung,S.aureus [4]; 4 h after inoculation,-
same,Ergebnis der Reisolierung qualitiativ (+/-) nach Anreicherung,S.aureus [4]; 6 h after inoculation,-
same,Ergebnis der Reisolierung qualitiativ (+/-) nach Anreicherung,S.aureus [4]; 8 h after inoculation,-
same,Ergebnis der Reisolierung qualitiativ (+/-) nach Anreicherung,S.aureus [4]; 24 h after inoculation,-
same,Ergebnis der Reisolierung qualitiativ (+/-) nach Anreicherung,S.aureus [4]; 32 h after inoculation,-
same,Ergebnis der Reisolierung qualitiativ (+/-) nach Anreicherung,S.aureus [4]; 48 h after inoculation,-
same,Ergebnis der Reisolierung qualitiativ (+/-) nach Anreicherung,S.aureus [4]; 72 h after inoculation,-
same,Ergebnis der Reisolierung qualitiativ (+/-) nach Anreicherung,H.influenzae [5]; 2 h after inoculation,-
same,Ergebnis der Reisolierung qualitiativ (+/-) nach Anreicherung,H.influenzae [5]; 4 h after inoculation,-
same,Ergebnis der Reisolierung qualitiativ (+/-) nach Anreicherung,H.influenzae [5]; 6 h after inoculation,-
same,Ergebnis der Reisolierung qualitiativ (+/-) nach Anreicherung,H.influenzae [5]; 8 h after inoculation,-
same,Ergebnis der Reisolierung qualitiativ (+/-) nach Anreicherung,H.influenzae [5]; 24 h after inoculation,-
same,Ergebnis der Reisolierung qualitiativ (+/-) nach Anreicherung,H.influenzae [5]; 32 h after inoculation,-
same,Ergebnis der Reisolierung qualitiativ (+/-) nach Anreicherung,H.influenzae [5]; 48 h after inoculation,-
same,Ergebnis der Reisolierung qualitiativ (+/-) nach Anreicherung,H.influenzae [5]; 72 h after inoculation,-
same,Ergebnis der Reisolierung qualitiativ (+/-) nach Anreicherung,P.aeruginosa [6]; 2 h after inoculation,- -
same,Ergebnis der Reisolierung qualitiativ (+/-) nach Anreicherung,P.aeruginosa [6]; 4 h after inoculation,-
same,Ergebnis der Reisolierung qualitiativ (+/-) nach Anreicherung,P.aeruginosa [6]; 6 h after inoculation,-
same,Ergebnis der Reisolierung qualitiativ (+/-) nach Anreicherung,P.aeruginosa [6]; 8 h after inoculation,-
same,Ergebnis der Reisolierung qualitiativ (+/-) nach Anreicherung,P.aeruginosa [6]; 24 h after inoculation,-
same,Ergebnis der Reisolierung qualitiativ (+/-) nach Anreicherung,P.aeruginosa [6]; 32 h after inoculation,-
same,Ergebnis der Reisolierung qualitiativ (+/-) nach Anreicherung,P.aeruginosa [6]; 48 h after inoculation,-
same,Ergebnis der Reisolierung qualitiativ (+/-) nach Anreicherung,P.aeruginosa [6]; 72 h after inoculation,-
same,Ergebnis der Reisolierung (in KBE/ml),Sc. pneumoniae [7]; 2 h after inoculation,<100 KBE/ml
same,Ergebnis der Reisolierung (in KBE/ml),Sc. pneumoniae [7]; 4 h after inoculation,<100 KBE/ml
same,Ergebnis der Reisolierung (in KBE/ml),Sc. pneumoniae [7]; 6 h after inoculation,<100 KBE/ml
same,Ergebnis der Reisolierung (in KBE/ml),Sc. pneumoniae [7]; 8 h after inoculation,<100 KBE/ml
same,Ergebnis der Reisolierung (in KBE/ml),Sc. pneumoniae [7]; 24 h after inoculation,<100 KBE/ml
same,Ergebnis der Reisolierung (in KBE/ml),Sc. pneumoniae [7]; 32 h after inoculation,<100 KBE/ml
same,Ergebnis der Reisolierung (in KBE/ml),Sc. pneumoniae [7]; 48 h after inoculation,<100 KBE/ml
same,Ergebnis der Reisolierung (in KBE/ml),Sc. pneumoniae [7]; 72 h after inoculation,<100 KBE/ml
same,Ergebnis der Reisolierung (in KBE/ml),H.influenzae [8]; 2 h after inoculation,<100 KBE/ml
same,Ergebnis der Reisolierung (in KBE/ml),H.influenzae [8]; 4 h after inoculation,<100 KBE/ml
same,Ergebnis der Reisolierung (in KBE/ml),H.influenzae [8]; 6 h after inoculation,<100 KBE/ml
same,Ergebnis der Reisolierung (in KBE/ml),H.influenzae [8]; 8 h after inoculation,<100 KBE/ml
same,Ergebnis der Reisolierung (in KBE/ml),H.influenzae [8]; 24 h after inoculation,<100 KBE/ml
same,Ergebnis der Reisolierung (in KBE/ml),H.influenzae [8]; 32 h after inoculation,<100 KBE/ml
same,Ergebnis der Reisolierung (in KBE/ml),H.influenzae [8]; 48 h after inoculation,<100 KBE/ml
same,Ergebnis der Reisolierung (in KBE/ml),H.influenzae [8]; 72 h after inoculation,<100 KBE/ml
same,Ergebnis der Reisolierung (in KBE/ml),E.coli [9]; 2 h after inoculation,<100 KBE/ml
same,Ergebnis der Reisolierung (in KBE/ml),E.coli [9]; 4 h after inoculation,<100 KBE/ml
same,Ergebnis der Reisolierung (in KBE/ml),E.coli [9]; 6 h after inoculation,<100 KBE/ml
same,Ergebnis der Reisolierung (in KBE/ml),E.coli [9]; 8 h after inoculation,<100 KBE/ml
same,Ergebnis der Reisolierung (in KBE/ml),E.coli [9]; 24 h after inoculation,<100 KBE/ml
same,Ergebnis der Reisolierung (in KBE/ml),E.coli [9]; 32 h after inoculation,<100 KBE/ml
same,Ergebnis der Reisolierung (in KBE/ml),E.coli [9]; 48 h after inoculation,<100 KBE/ml
same,Ergebnis der Reisolierung (in KBE/ml),E.coli [9]; 72 h after inoculation,<100 KBE/ml
same,Ergebnis der Reisolierung (in KBE/ml),S.aureus [10]; 2 h after inoculation,<100 KBE/ml
same,Ergebnis der Reisolierung (in KBE/ml),S.aureus [10]; 4 h after inoculation,<100 KBE/ml
same,Ergebnis der Reisolierung (in KBE/ml),S.aureus [10]; 6 h after inoculation,<100 KBE/ml
same,Ergebnis der Reisolierung (in KBE/ml),S.aureus [10]; 8 h after inoculation,<100 KBE/ml
same,Ergebnis der Reisolierung (in KBE/ml),S.aureus [10]; 24 h after inoculation,<100 KBE/ml
same,Ergebnis der Reisolierung (in KBE/ml),S.aureus [10]; 32 h after inoculation,<100 KBE/ml
same,Ergebnis der Reisolierung (in KBE/ml),S.aureus [10]; 48 h after inoculation,<100 KBE/ml
same,Ergebnis der Reisolierung (in KBE/ml),S.aureus [10]; 72 h after inoculation,<100 KBE/ml
